Laboratory results: US11142533B2, “Macrocycles for use in treating disease” (TURNING POINT THERAPEUTICS, INC., priority 2019, dated 2021)
“Also recorded” adds a separate entry of the source.

How the values were obtained:
[1] = target: T1, ALK fusion protein in Ba/F3 cell-derived xenograft tumors with the EML4-ALK L1196M/G1202R fusion (Homo sapiens, UniProt Q9UM73, G1202R/L1196M); test: In vivo pharmacodynamic study, tumor immunoblotting; set-up: species or system mice; details: for ALK phosphorylation level compared to control: 0.6, 2, or 5 mg/kg
T1 construct: expressed in transfected cells; host or cells: Ba/F3 cells (lentiviral transduction), implanted subcutaneously in SCID/Beige mice; the other entry of the earlier key: EML4 (Q9HC35, Echinoderm microtubule-associated protein-like 4)
Description: Mice bearing xenograft tumors were humanely euthanized and tumors were resected and snap frozen in liquid nitrogen and stored at −80° C. Frozen tumor samples were processed at 4° C. in 1× Cell Lysis Buffer (Cell Signaling Technologies) to extract proteins. SDS loading samples were prepared by addition of 4×LDS Sample Buffer and 10× Reducing Reagent (Life Technologies, Inc) to protein lysate. Tumor SDS protein samples were processed by SDS-PAGE and immunoblotted with rabbit anti-phosphorylated ALK Y1282/1283, rabbit anti-phosphorylated ALK Y1604, rabbit anti-ALK and mouse anti-actin antibodies (Cell Signaling Technologies). The signals from immunoblot were detected by C-DiGit Blot Scanner from LI-COR and the signal intensity were quantified using the Image Studio Digit software (LI-COR).
As the control, the expression level of actin was not affected by Compound 1 treatment.

ALK (delete G1202) = target: T2, ALK (delete G1202) (Homo sapiens, UniProt Q9UM73, DEL1202-1202); test: Biochemical kinase assay (Reaction Biology); details: 10 μM ATP
T2 construct: purchased Reaction Biology Corporation (contract assay)

[2] = single oral dose 10 mg/kg, 2 hours post dose, tumor immunoblot, 10 mg/kg

CC1(C)COc2ccc(F)cc2CN2c3nc4c(cnn4cc3OC[C@H]2C(F)F)C(=O)N1 [Compound 1, (4S)-4-(Difluoromethyl)-8-fluoro-13,13-dimethyl-3,4,13,14-tetrahydro-6H-18,1-(metheno)[1,4]oxazino[3,4-i]pyrazolo[4,3-f][1,4,8,10]benzoxatriazacyclotridecin-15(12H)-one]
ALK phosphorylation level compared to control ([1]; at 12 hours): only showed reduction at 12 hours at the highest dose
ALK phosphorylation level compared to control ([1]; each dose, at 2 hours): significantly reduced
level of ALK fusion expression vs vehicle [1, 2]: reduction; also recorded: reduced
level of phosphorylation of ALK fusions at Y1282/1283 vs vehicle [1, 2]: inhibition of phosphorylation; also recorded: reduced
level of phosphorylation of ALK fusions at Y1604 vs vehicle [1, 2]: inhibition of phosphorylation; also recorded: reduced

O=C1NCC2(CC2)COc2ccc(F)cc2CN2c3nc4c1cnn4cc3OC[C@H]2C(F)F [Compound 2, (16′S)-16′-(Difluoromethyl)-12′-fluoro-4′H,5′H,6′H,8′H,14′H,16′H,17′H-spiro[cyclopropane-1,7′-[1,19](metheno)[1,4]oxazino[3,4-j]pyrazolo[4,3-g][1,5,9,11]benzoxatriazacyclotetradecin]-4′-one]
IC50 (ALK (delete G1202)): 0.45 nM
